Laboratory results from US4500712A, “Ergoline derivatives” (Farmitalia Carlo Erba S.p.A., priority 1981, dated 1985).

Assays:
[1] = tested on: restraint ulcers; experiment: Inhibition of restraint ulcers in rats (Bonfils et al.); type: in vivo, Sprague-Dawley male rats; details: 1 h; rat, oral, one hour before immobilization; read-out: Anticular activity (ED50, mg/kg p.o.)
Protocol: The anti-ulcerogenic activity of the compounds of the present invention is shown, e.g., by the fact that they are active in the test of the inhibition of restraint ulcers in rats, according to the method of Bonfils et al., (Therapie, 1960, 15, 1096). According to this method the tested compounds were administered per os one hour before the immobilization.
Six Sprague-Dawley male rats (100-120 g), fasted 24 hours, were used for the experiment: a square flexible small-mesh wire netting was used for the immobilization and 4 hours after the immobilization the rats were sacrificed, their stomachs were removed and the lesions counted under a dissecting microscope.

[2] = tested on: gastric secretion; experiment: Gastric antisecretory activity in pylorus-ligated rats (Shay et al.); type: in vivo, Sprague-Dawley male rats; details: 4 h; rat, intraduodenal, at the time of ligature; read-out: Antisecretory activity (ED50, mg/kg i.d.)
Protocol: According to this method the tested compounds were injected intraduodenally at the time of ligature. Six Sprague-Dawley male rats (110-130 g) were used for each group. Twenty-four hours before the test, the rats were deprived of food but the water supply was maintained. On the day of the operation, the pylorus was ligated under light ether anaesthesia. Four hours after the ligature, the rats were sacrificed. The stomach secretion was collected and centrifuged at 3500 r.p.m. for 10 minutes and the volume, less sediment, was determined. The amount of free hydrochloric acid in the gastric juice was determined by titration against 0.01N sodium hydroxide, to an end point of pH 7.

[3] = tested on: heart rate (HR) in SH-rats; experiment: Heart rate in spontaneously hypertensive rats (indirect tail cuff method)
Protocol: (§1) Indirect measurements of systolic blood pressure were carried out on groups of 4 spontaneously hypertensive rats (SHR, Kyoto), 8-10 weeks of age, supplied by Charles Rives, Italy.
(§2) The animals were maintained in an environment of 36° C. for 10-15 minutes to allow pulse pressure to be recorded and then systolic blood pressure and heart rate were measured by indirect tail cuff method using a W+W, BP recorder, model 8005.
(§3) The compounds were given orally, suspended in 5% arabic gum, once a day for 4 consecutive days and measurements were carried out before beginning the treatment and 1 and 5 hours after dosing in both the first and fourth day of treatment.
(§4) Control animals received the vehicle only (0.2 ml/100 g b.w.). As reference standards, hydralazine (1-5 mg/kg p.o.) and α-methyl-dopa (30-100 mg/kg p.o.) were also tested.
(§5) Drug-induced changes in systolic blood pressure and heart rate were calculated as differences from the pretreatment values.

[4] = tested on: systolic blood pressure (S.B.P.) in SH-rats; experiment: Systolic blood pressure in spontaneously hypertensive rats (indirect tail cuff method); type: in vivo, spontaneously hypertensive rats (SHR, Kyoto)
Protocol: as §1, §2, §3, §4, §5

[5] = tested on: syndrome induced by oxotremorine; details: general statement; cited from earlier work
[6] = 1 mg/kg p.o., 1st day, 1 h post drug
[7] = 1 mg/kg p.o., 1st day, 5 h post drug
[8] = 1 mg/kg p.o., 4th day, 1 h post drug
[9] = 1 mg/kg p.o., 4th day, 5 h post drug
[10] = 5 mg/kg p.o., 1st day, 1 h post drug
[11] = 5 mg/kg p.o., 1st day, 5 h post drug
[12] = 5 mg/kg p.o., 4th day, 1 h post drug
[13] = 5 mg/kg p.o., 4th day, 5 h post drug

CN1C[C@H](CNC(=S)NC(=O)c2ccccc2)C[C@@H]2c3cccc4[nH]cc(c34)C[C@H]21 [Ex 2, 6-Methyl-8β-(3-benzoyl-thioureidomethyl)-ergoline]
ED50 [1]: 0.7 mg/kg | ED50 [2]: 1.4 mg/kg

CN1C[C@@H](CNC(=O)NC(=O)c2ccccc2)C[C@@H]2c3cccc4[nH]cc(c34)C[C@H]21 [Ex 10, 6-Methyl-8α-(3-benzoyl-ureidomethyl)-ergoline]
ED50 [1]: 7 mg/kg | ED50 [2]: 1 mg/kg

CN1C[C@@H](CNC(=S)NC(=O)c2ccccc2)C[C@H]2c3cccc4[nH]cc(c34)C[C@H]21 [Ex 1, 6-Methyl-8α-(3-benzoyl-thioureidomethyl)-10β-ergoline]
ED50 [1]: 4.2 mg/kg | ED50 [2]: 2.5 mg/kg

C[C@](N)(Cc1ccc(O)c(O)c1)C(=O)O [α-methyl-DOPA, α-methyl-dopa]
effects on heart rate (in words) ([3]; rat, in vivo): increase HR | Changes in S.B.P ([4]; 30 mg/kg p.o., 1st day, 1 h post drug): -10 ΔmmHg | Changes in S.B.P ([4]; 30 mg/kg p.o., 1st day, 5 h post drug): -20 ΔmmHg | Changes in S.B.P ([4]; 30 mg/kg p.o., 4th day, 1 h post drug): -10 ΔmmHg | Changes in S.B.P ([4]; 30 mg/kg p.o., 4th day, 5 h post drug): 0 ΔmmHg | Changes in S.B.P ([4]; 100 mg/kg p.o., 1st day, 1 h post drug): -10 ΔmmHg | Changes in S.B.P ([4]; 100 mg/kg p.o., 1st day, 5 h post drug): -25 ΔmmHg | Changes in S.B.P ([4]; 100 mg/kg p.o., 4th day, 1 h post drug): -20 ΔmmHg | Changes in S.B.P ([4]; 100 mg/kg p.o., 4th day, 5 h post drug): -25 ΔmmHg

NNc1nncc2ccccc12 [Hydralazine, hydralazine]
Changes in HR [3, 6]: +30 beats/min | Changes in HR [3, 7]: +35 beats/min | Changes in HR [3, 8]: +25 beats/min | Changes in HR [3, 9]: +15 beats/min | Changes in HR [3, 10]: +40 beats/min | Changes in HR [3, 11]: +45 beats/min | Changes in HR [3, 12]: +18 beats/min | Changes in HR [3, 13]: +15 beats/min | effects on heart rate (in words) ([3]; Table 3, SH-rats): increase HR | Changes in S.B.P [4, 6]: -5 ΔmmHg | Changes in S.B.P [4, 7]: -15 ΔmmHg | Changes in S.B.P [4, 8]: -5 ΔmmHg | Changes in S.B.P [4, 9]: 0 ΔmmHg | Changes in S.B.P [4, 10]: -40 ΔmmHg | Changes in S.B.P [4, 11]: -20 ΔmmHg | Changes in S.B.P [4, 12]: -20 ΔmmHg | Changes in S.B.P [4, 13]: -7 ΔmmHg

CN1[C@@H]2CC[C@H]1C[C@@H](OC(=O)C(CO)c1ccccc1)C2 (some centres unmarked) [atropine]
anti-cholinergic activity of known agent [5]: remarkable but undesired anti-cholinergic activity

CC(=O)NC(=O)NC[C@H]1C[C@@H]2c3cccc4[nH]cc(c34)C[C@H]2N(C)C1 [Ex 26, 6-Methyl-8α-(3-acetyl-ureidomethyl)-ergoline]
Changes in S.B.P [4, 10]: -28 ΔmmHg | Changes in S.B.P [4, 11]: -60 ΔmmHg | Changes in S.B.P [4, 12]: -45 ΔmmHg | Changes in S.B.P [4, 13]: -36 ΔmmHg

CC(=O)NC(=O)NC[C@@H]1C[C@@H]2c3cccc4[nH]cc(c34)C[C@H]2N(C)C1 [Ex 9, 6-Methyl-8β-(3-acetyl-ureidomethyl)-ergoline]
Changes in S.B.P [4, 10]: -25 ΔmmHg | Changes in S.B.P [4, 11]: -17 ΔmmHg | Changes in S.B.P [4, 12]: -57 ΔmmHg | Changes in S.B.P [4, 13]: -56 ΔmmHg
